Measurements as given in patent publication US20220033448A1, “METHODS FOR AGGREGATION OF PROTEINS” (priority 2011, published 2022).
Like-named read-outs stand apart in the source and are kept apart here. No end group written: not given here.

Tests used:
Nocardia asteroides = Nocardia asteroides ATCC 3308; planktonic; 18 hours
Procedure: (§1) Bacteria were grown in a shaking incubator at 37° C. and 160rpm in 50 ml BHI , using individual colonies retrieved from a fresh overnight TSA-sheep blood plate. The cultures were grown to a density of approximately 1×10^8cells/ml and then diluted to 5×10^5 cells/ml in CAMHB (Mc Farland 0.5). Each well contained 100p.I (50p.I of peptide containing MHB plus 50 μl inoculum). The final cell density was 1×10^5 to 5×10^5/ml. After addition of the cell suspension, plates were incubated at 37° C. for 18 to 24 hours. The optical density at 590 nm (OD590) of each well was measured after 5 seconds of shaking the plate using Perkin Elmer spectrophotometer (1420 Multilabel Counter Vicotr 3). […] Each well, where no growth was observed, was also plated on TSA-sheep blood agar plates, incubated at 37° C. overnight and visually inspected.
(§2) A microbroth dilution method was used with twofold serial dilutions in CAMHB (according to EMEA guidelines) was used for screening of peptide activity, with concentrations ranging from 0.3 μg/mIto 200 μg/ml.

Ps. aeruginosa ATCC27853 = test: MIC, microbroth dilution; conditions: planktonic, 18 hours
Procedure: as §1

[1] = Preliminary in vivo toxicity in mice; conditions: Swiss mice
Procedure: Further, three groups of 6-weeks old female Swiss mice were injected with increasing C30 doses over a period of 1 week. C30 was dissolved in physiological water and 1 injection per day was given. In the first 3 days injections in the tail vein were given (150 μl per injection) and during the remaining 2 days IP injections (300 μl per injection). The primary dose started from 3 mg/kg and each day the dose was increased gradually. The control group received the same volume of saline. The highest dose analyzed for IV injections was 50 mg/kg and for the IP injections 100 mg/kg. […] Organs of treated and control mice were subjected to further histological analysis. After all 5 injections were given, blood was taken by retro-orbital puncture and analyzed.

[2] = test system: Listeria monocytogenes ATCC 11994; test: MIC, microbroth dilution; conditions: planktonic, 18 hours
Procedure: as §1

B. cereus = conditions: planktonic, 18 hours
Procedure: as §1, §2

[3] = test system: human embryonic kidney cells (HEK293T cell line); conditions: concentrations lower than 100 μg/ml; HEK293T
Excerpt: Alamar blue assay allowed monitoring of the total percentage of cell growth recovery in time in the presence of peptides.

[4] = test system: negative regulator of genetic competence CIpC/mecB; test: SOSPA shotgun proteomic analysis of soluble / insoluble fractions; assay type: cell-based, S.aureus and B.cereus; conditions: C30 treated vs untreated cells
Excerpt: The aggregation technology is based on the assumption that short amino acid stretches, with a high propensity of aggregation (e.g. assessed by the TANGO score) and that are derived from a target protein, can induce aggregation of that protein. This hypothesis has been confirmed by a shotgun proteomic analysis of the insoluble fraction. If we assume that our aggregator peptides work through specific interaction with its target and causes its aggregation, it is expected that the target enters the insoluble fraction. For this reason we've decided to split the lysate into 2 fractions: insoluble and soluble and compare these with untreated cell fractions. Proteins present in both treated (TC30) and untreated (NT) insoluble fractions were assumed to present a background of non-specific naturally non-soluble proteins. Additionally we've examined soluble fractions of both treated and untreated bacteria and as expected the protein of interest was present only in the untreated fraction. This means that the following criteria for target search were used:
1) potential aggregation targets are proteins obtained from the list of proteins in the Insoluble fraction of C30 treated cells minus proteins in the Insoluble fraction of non-treated cells […]

Candida albicans SC5314 = test: In vivo subcutaneous C. albicans biofilm model in rats (polyurethane catheters, CFU)
Procedure: In a next step we also investigated a potential inhibitory role of interferor peptide F9 during in vivo C. albicans biofilm development. We used the in vivo subcutaneous C. albicans biofilm model in rats (i.e. in vivo biofilms formed inside polyurethane triple lumen catheter pieces) as further outlined in the materials and methods section. Only one concentration of peptide F9 (i.e. 50 μM) was tested in the experimental conditions. The peptide was administrated ex vivo, during initial attachment of Candida to the substrate (90 min, 37° C.). Afterwards, the catheters were washed and implanted subcutaneously in rats. Biofilms were studied six days post implantation and quantified by CFUs. […]
Polyurethane triple lumen intravenous catheters (2.4 mm diameter) cut into segments of 1 cm (Arrow International Reading, USA) were incubated overnight in FBS at 37° C. […] The skin was disinfected and catheter fragments were removed from under the subcutaneous tissue, washed twice with 1× PBS and quantified or visualized.The effect of peptides promoting the aggregation of Als3p during Candida biofilm development in vivo was characterized, as well. […]
The amount of fungal biofilm biomass formed inside the catheter lumen of in vitro and in vivo explanted catheters was determined by colony forming units (CFU). […] CFUs were counted after two days at 37° C.

Sequence | MIC (Nocardia asteroides) | MIC (Ps. aeruginosa ATCC27853) | side effects ([1]; IP injection, highest dose of 100 mg/kg) | mortality and side effects ([1]; IV injections, increasing doses from 3 mg/kg, highest dose 50 mg/kg) | blood analysis ([1]; after all 5 injections, retro-orbital puncture) | MIC [2] | MIC (B. cereus; Bacillus cereus 1) | MIC (B. cereus; Bacillus cereus 2) | viability of mammalian cells [3] | distribution of the target protein between soluble and insoluble fraction [4] | maximal increase of the MIC (MRSA strain 326; 31 days, concentration in medium adjusted to MIC of previous day) | MIC on the last day of the experiment (MRSA strain 326; day 31) | mean CFUs ±SD obtained per catheter fragment (Candida albicans SC5314; 50 μM ex vivo during adhesion (90 min, 37° C.), catheters implanted subcutaneously in rats, six days post implantation, control 3.69 ±0.42) | peptide-treated catheters containing less than 2.0 log10 CFU/catheter fragment (Candida albicans SC5314; four out of 20 catheters, 50 μM, rats, six days)
RILLGLIRRGSRILLGLIRR [C30] | Nocardia asteroides ATCC 3308: 1.5 μg/ml | Ps. aeruginosa ATCC27853: >100 μg/ml | developed a subcutaneous lesion bump | no signs of mortality nor any other visible side effects | No abnormalities were found in the blood | Listeria monocytogenes ATCC 11994: 1.5 μg/ml | Bacillus cereus 1: 6 μg/ml | Bacillus cereus 2: 6 μg/ml | viability of mammalian cells is not significantly affected | shifted from soluble into insoluble fraction upon peptide treatment | ≤ 4 fold | 12,5 μg/ml | – | –
RKLLFNLGSRNGIVIVATTR [F9] | – | – | – | – | – | – | – | – | – | – | – | – | 2.25 ±1.08 login CFU/catheter fragment | 20%
